Data as given in patent US12521403B2, “Compositions for the treatment of chronic vulval and perineal pain and symptoms and conditions associated therewith” (TA Pharma Pty Limited, priority 2016, dated 2026).
Structures can show the parent of a compound that is named as a salt. Where two headings read alike, the source gives them in different places.

Assays:
[1] = cited from earlier work
[2] = Dissolution of estriol in solvents for the organic phase of the organogel; format: physicochemical; conditions: propylene glycol alone
Procedure: The ratio of propylene glycol to LIP was 4:10. For the aqueous phase, amitriptyline HCL was dissolved in water, then PLURONIC® F-127 was added to give a 20% PLURONIC® solution. The two phases were mixed using a syringe to syringe transfer method which produce a relatively high shear mixing. The ratio of organic to aqueous phases was 1:2. This produced a stable organogel with final concentrations of 300 mcg/g estriol and 0.5% w/w amitriptyline. Stability may be increased by the addition of potassium sorbate.
To increase the dissolution of the estriol in the organic phase, and thereby improve bioavailability, a combination of solubiliser (diethylene glycol monoethyl ether) and propylene glycol was employed. […] This was then blended with the LIP to produce the organic phase.

| SMILES | solubility in water ([1]; at pH 1.2) | solubility in water ([1]; at pH 6.8) | dissolution in propylene glycol [2] | solubility in water ([1]; water) |
| --- | --- | --- | --- | --- |
| CN(C)CCC=C1c2ccccc2CCc2ccccc21 [Amitriptyline HCL] | 1000 mg/mL | 0.9 mg/mL |  |  |
| C[C@]12CC[C@@H]3c4ccc(O)cc4CC[C@H]3[C@@H]1C[C@@H](O)[C@@H]2O [Estriol] |  |  | did not produce a clear solution | 27 mg per litre |
